Experimental data as given in patent publication US3992535A, “4-Hydroxy-2H-naphtho[2,1-e]-1,2-thiazine-3-carboxamide-1,1-dioxides and salts thereof” (priority 1974, dated 1976).
Structures can show the parent of a compound that is named as a salt. Where two headings read alike, the source gives them in different places.

Columns and labels:
[1] = tested on: carrageenin-induced edema of the hind paw of the rat; test: Carrageenin edema of the back paw of the rat; format: in vivo; conditions: per os, 60 minutes before edema, swelling at 3 hours
Procedure: (§1) Compound A and known compound B were tested to determine their actue antiexsudative effect on the kaolin-induced edema and the carrageenin-induced edema of the hind paw of the rat and their acute toxicity after oral administration in rats.
b. Carrageenin edema of the back paw of the rat:
(§2) The provocation of the carrageenin edema was effected according to the method of Winter et al [Proc. Soc. exp. Biol. Med. 111, 544 (1962)] by subplantar injection of 0.05 ml of a 1% solution of carrageenin in an aqueous 0.85% solution of sodium chloride. The test compound was administered 60 minutes before the provocation of the edema.
(§3) For the calculation of the reductive effect on the edema, the size of the swelling was measured 3 hours after the provocation of the edema. All the other details were the same as described above in the case of the kaolin edema.

[2] = Acute toxicity in the rat, oral; format: in vivo; conditions: in vivo, po, per os, male and female FW 49-rats, within 14 days
Procedure: (§4) The test compound was administered in the form of a trituration in tylose.
(§5) The calculation of the LD50 values was effected, to the extent possible, according to the method of Litchfield and Wilcoxon, based on the percentage of animals which died within 14 days after administration of the different doses.

[3] = tested on: kaolin-induced edema of the hind paw of the rat; test: Kaolin edema of the hind paw of the rat; format: in vivo; conditions: per os, 30 minutes before edema, 35% reduction of swelling at 5 hours
Procedure: as §1
a. Kaolin edema of the hind paw of the rat:
(§6) The kaolin edema was induced according to the method of Hillebrecht [Arzneimittel-Forsch. 4, 607 (1954] by subplantar injection of 0.05 ml of a 10% suspension of kaolin in an aqueous 0.85% sodium chloride solution. Measurement of the thickness of the paws was effected using the technique of Doepfner and Cerletti [Int. Arch. Allergy Immunol. 12, 89 (1958)]. The test compound was administered perorally by means of an esophageal tube to male FW 49-rats having an average body weight of 120 to 150 gm 30 minutes before inducing the edema. 5 hours after the provocation of the edema, the average size of the swelling in the rats treated with the test compound was compared with the average size of the swelling in the control animals treated by a dummy procedure. By graphical extrapolation, the dose leading to a 35% reduction of the swelling (ED35) was calculated from the percentage reduction in the size of the swelling caused by the administration of different doses.

[4] = tested on: kaolin- and carrageenin-induced edemas; test: Kaolin and carrageenin edema combined: average ED35 and therapeutic ratio LD50/ED35; format: in vivo; conditions: for ED35: Rattus norvegicus, read-out: Average value ED35; for Therapeutic ratio: ratio of toxic and anti-exsudative activity LD50 / ED35: oral LD50 / average ED35, rat
Procedure: as §6, §2, §3
The therapeutic index (a measure of the therapeutic usefulness) was calculated as the quotient of the oral LD50 value and the ED35 value derived from the tests to determine the antiexsudative activity against kaolin- and carrageenininduced edemas.

[5] = tested on: adjuvant arthritis in the rat; test: Adjuvant arthritis in the rat; format: in vivo; conditions: for ED50: po, 504 h, per os, once a day for 20 days, paw volume on 21st day, read-out: Adjuvant arthritis in the rat ED50 per os (average value of primary and secondary reaction); for activity against adjuvant arthritis compared with phenylbutazone (D) (in words): vs phenylbutazone (D)
Procedure: d. Adjuvant arthritis in the rat: The adjuvant arthritis tests in rats were carried out according to the method of Rosenthale and Nagra [Proc. Soc. exp. Biol. 125, 149 (1967)]. […] The test compound was administered once a day, starting with the day of the M. butyricum-injection, for a period of 20 days by means of an esophageal tube. […] An ED50 was determined graphically from the reduction of the swelling caused by the administration of different doses.

[6] = tested on: platelet stickiness in human citrate blood; test: Morris test (platelet stickiness, retention on glass beads); format: cell-based; conditions: for inhibition at 100 µM: Platelet, 10 min, 10^-^4 mol/liter, human citrate blood, read-out: Morris test (percentage reduction in the stickiness)
Procedure: The principle of the Morris test is described in "Stoffwechsel- and Membranpermeabilitat von Erythrozyten und Thrombozyten, I. Int.
1 ml of human citrate blood was pipetted into each of a number of small test tubes, the test compound was added in the desired concentrations, and the tubes were incubated at 37° C for 10 minutes. 2 gm each of glass beads (about 100 mesh) were added to half of the tubes. The tubes, stoppered by means of a plastic plug, were attached to a vertical wheel and rotated for 45 seconds end-over-end. The same tubes were then left to stand at ambient temperature for a further hour, after which time a sedimentation of erythrocytes and glass beads had taken place. 0.01 ml of the supernatant plasma was removed and diluted with 1:800 celloscope solution. The platelet count was read in a celloscope. The percentage of the thrombocytes retained in the sediment (adhering to the glass beads or aggregating) was calculated from the difference of the thrombocyte counts with and without glass contact.
The results were expressed in terms of the percentage reduction in the stickiness compared with the control (without addition of test compound).

rat = test: Acute toxicity in the rat, oral; format: in vivo; conditions: per os, vs compound E
Procedure: as §4, §5

[7] = tested on: thrombocyte aggregation in the platelet-rich plasma of healthy human donors; test: Born test; collagen aggregation; format: cell-based; conditions: for inhibition at 0.1 µM: 10^-^7 mol/liter; for 50% diminution of aggregation: times lower concentration than compound N: vs compound N (acetylsalicylic acid)
Procedure: b. […] The rate of decline of the optical density of platelet suspensions was measured and recorded photometrically after the addition of commercial collagen. From the angle of inclination of the density curve, the rate of aggregation was estimated. The optical density was taken at the point on the curve where most light was transmitted. The amount of collagen was chosen such that an irreversible control curve was obtained. The results were expressed in terms of the optical density and represent the percentage change in light transmission (= % diminution of the aggregation) caused by the test compound compared with the untreated control.

[8] = Homo sapiens, 10^-^4 mol/liter, read-out: Born test (% diminution of the aggregation)
[9] = Homo sapiens, 10^-^5 mol/liter, read-out: Born test (% diminution of the aggregation)
[10] = Homo sapiens, 10^-^6 mol/liter, read-out: Born test (% diminution of the aggregation)
[11] = Homo sapiens, read-out: Born test (% diminution of the aggregation)

Structure (SMILES) | inhibition at 100 µM [7, 8] | inhibition at 10 µM [7, 9] | inhibition at 1 µM [7, 10] | inhibition at 0.1 µM [7, 11] | 50% diminution of aggregation: times lower concentration than compound N [7] | also measured
COc1ccc2c(c1)c(CC(=O)O)c(C)n2C(=O)c1ccc(Cl)cc1 [B, indomethacin, reference compound] |  |  |  |  |  | ED35 [1]: 2.9 mg/kg; LD50 at 336 h [2]: 25.7 mg/kg; ED35 [3]: 2.7 mg/kg; ED35 [4]: 2.8 mg/kg; Therapeutic ratio: ratio of toxic and anti-exsudative activity LD50 / ED35 [4]: 9.2
CN1C(C(=O)Nc2ccccn2)=C(O)c2ccc3ccccc3c2S1(=O)=O [C, 4-Hydroxy-2-methyl-N-(2-pyridyl)-2H-naphtho[2,1-e]-1,2-thiazine-3-carboxamide-1,1-dioxide] |  |  |  |  |  | activity against adjuvant arthritis (in words) [5]: surprisingly strong activity; ED50 [5]: ~4 mg/kg; activity against adjuvant arthritis compared with phenylbutazone (D) (in words) [5]: far superior
CN1C(C(=O)Nc2nccs2)=C(O)c2ccc3ccccc3c2S1(=O)=O [Compound A, 4-Hydroxy-2-methyl-N-(2-thiazolyl)-2H-naphtho[2,1-e]-1,2-thiazine-3-carboxamide-1,1-dioxide] | 96% | 95% | 92% | 65% |  | inhibition at 100 µM [6]: 43%; ED35 [1]: 11 mg/kg; toxicity compared with compound E (in words) (rat): less toxic; LD50 at 336 h [2]: 207 mg/kg; ED35 [3]: 13.5 mg/kg; ED35 [4]: 12.2 mg/kg; Therapeutic ratio: ratio of toxic and anti-exsudative activity LD50 / ED35 [4]: 16.9; therapeutic ratio relative to known compound B ([4]; vs compound B (indomethacin)): twice as great; 50% diminution of the aggregation: times lower concentration than compound E ([7]; vs compound E (sudoxicam)): at least 10 times lower; inhibiting effect on the thrombocyte aggregation compared with compound E (in words) ([7]; vs compound E (sudoxicam)): significantly stonger; activity against adjuvant arthritis (in words) [5]: surprisingly strong activity; ED50 [5]: < 2 mg/kg; activity against adjuvant arthritis compared with phenylbutazone (D) (in words) [5]: far superior
CCCCC1C(=O)N(c2ccccc2)N(c2ccccc2)C1=O [D, phenylbutazone, reference compound] |  |  |  |  |  | ED50 [5]: ~40 mg/kg
CN1C(C(=O)Nc2nccs2)=C(O)c2ccccc2S1(=O)=O [E, 4-hydroxy-2-methyl-N-(2-thiazolyl)-2H-1,2-benzothiazine-3-carboxamide-1,1-dioxide, reference compound] |  |  |  |  |  | inhibition at 100 µM [6]: 3%; inhibition of the stickiness in the Morris test in comparison with compound A (in words) ([6]; vs compound A): practically ineffective; LD50 at 336 h [2]: 136 mg/kg; inhibition at 1 µM [7, 11]: 33%; inhibition at 10 µM [7, 11]: 91%; inhibition at 100 µM [7, 11]: 92%
CN1C(C(=O)Nc2cccc(Cl)c2)=C(O)c2ccc3ccccc3c2S1(=O)=O [F, N-(3-Chloro-phenyl)-4-hydroxy-2-methyl-2H-naphtho[2,1-e]-1,2-thiazine-3-carboxamide-1,1-dioxide] | 96% | 81% | 35% |  | at least 20 times lower | 
Cc1cccc(NC(=O)C2=C(O)c3ccc4ccccc4c3S(=O)(=O)N2C)c1 [G, 4-Hydroxy-2-methyl-N-(3-tolyl)-2H-naphtho[2,1-e]-1,2-thiazine-3-carboxamide-1,1-dioxide] | 97% | 78% | 65% |  | at least 20 times lower | 
Cc1ccnc(NC(=O)C2=C(O)c3ccc4ccccc4c3S(=O)(=O)N2C)c1 [H, Sodium salt of 4-hydroxy-2-methyl-N-(4-methyl-2-pyridyl)-2H-naphtho[2,1-e]-1,2-thiazine-3-carboxamide-1,1-dioxide] | 95% | 91% | 82% |  | at least 100 times lower | 
CN1C(C(=O)Nc2cncc(Cl)n2)=C(O)c2ccc3ccccc3c2S1(=O)=O [I, N-(6-Chloro-2-pyrazinyl)-4-hydroxy-2-methyl-2H-naphtho[2,1-e]-1,2-thiazine-3-carboxamide-1,1-dioxide] |  | 91% | 91% | 22% | at least 100 times lower | 
Cc1csc(NC(=O)C2=C(O)c3ccc4ccccc4c3S(=O)(=O)N2C)n1 [J, 4-Hydroxy-2-methyl-N-(4-methyl-2-thiazolyl)-2H-naphtho[2,1-e]-1,2-thiazine-3-carboxamide-1,1-dioxide] | 92% | 89% | 88% | 4% | at least 100 times lower | 
Cc1cnc(NC(=O)C2=C(O)c3ccc4ccccc4c3S(=O)(=O)N2C)s1 [K, 4-Hydroxy-2-methyl-N-(5-methyl-2-thiazolyl)-2H-naphtho[2,1-e]-1,2-thiazine-3-carboxamide-1,1-dioxide] | 89% | 97% | 66% |  | at least 20 times lower | 
Cc1nc(NC(=O)C2=C(O)c3ccc4ccccc4c3S(=O)(=O)N2C)sc1C [L, N-(4,5-Dimethyl-2-thiazolyl)-4-hydroxy-2-methyl-2H-naphtho[2,1-e]-1,2-thiazine-3-carboxamide-1,1-dioxide] | 91% | 95% | 88% | 15% | at least 100 times lower | 
CCc1nc(NC(=O)C2=C(O)c3ccc4ccccc4c3S(=O)(=O)N2C)sc1C [M, N-(4-Ethyl-5-methyl-2-thiazolyl)-4-hydroxy-2-methyl-2H-naphtho[2,1-e]-1,2-thiazine-3-carboxamide-1,1-dioxide] | 94% | 91% | 79% | 24% | at least 100 times lower | 
CC(=O)Oc1ccccc1C(=O)O [N, acetylsalicylic acid, reference compound] |  |  |  |  |  | inhibition at 10 µM [7, 11]: 13%; inhibition at 30 µM [7, 11]: 45%; IC50 ([7]; Homo sapiens, read-out: concentration causing a 50% diminution of aggregation): ~40 µM
